In ChEMBL document CHEMBL5150053, “Carboxymethyl tethered poly(disubstituted)triazoles built on nucleoside skeletons: A unique class of ribonuclease A inhibitors designed using chemical logic” (Bioorg Med Chem, 2022):
Active and inactive are the calls of the source. The rule behind the calls is not given here.

Key:
[1] = Competitive reversible inhibition of bovine pancreatic RNase A using 2',3'-cCMP as substrate assessed as inhibition constant by spectrophotometric analysis; parameters: species or system Bos taurus
[2] = organism: Bos taurus; test: Inhibition of bovine pancreatic RNase A using tRNA as substrate assessed as substrate degradation preincubated with compound for 3 hrs followed by substrate addition and measured after 30 mins by ethidium bromide staining based agarose gel electrophoresis analysis; conditions: time 3.5 hrs
[3] = Linear mixed type inhibition of bovine pancreatic RNase A using 2',3'-cCMP as substrate assessed as inhibition constant by spectrophotometric analysis; parameters: species or system Bos taurus
[4] = Hyperbolic partial competitive inhibition of bovine pancreatic RNase A using 2',3'-cCMP as substrate assessed as inhibition constant by spectrophotometric analysis; parameters: species or system Bos taurus
[5] = Competitive inhibition of bovine pancreatic RNase A using 2',3'-cCMP as substrate assessed as inhibition constant by spectrophotometric analysis; parameters: species or system Bos taurus
[6] = organism: Bos taurus; test: Uncompetitive inhibition of bovine pancreatic RNase A using 2',3'-cCMP as substrate assessed as Michaelis-Menten constant (Km) by Lineweaver-burk plot analysis (reference value: 9.35 x 10^-4 M)
[7] = Uncompetitive inhibition of bovine pancreatic RNase A using 2',3'-cCMP as substrate assessed as inhibition constant by spectrophotometric analysis; parameters: species or system Bos taurus

SMILES	Ki [1]	inhibition [2]	Ki [5]	further results
Nc1ccn([C@@H]2O[C@H](CO)[C@@H](S(=O)(=O)CC(=O)O)[C@H]2O)c(=O)n1	1.75 µM			
Cc1cn([C@H]2C[C@H](OCc3cn(CC(=O)O)nn3)[C@@H](COCc3cn(CC(=O)O)nn3)O2)c(=O)[nH]c1=O		Active		Ki [3]: 211 µM
Cc1cn([C@H]2C[C@H](OCc3cn(CC(=O)O)nn3)[C@@H](COCc3cn(CC(=O)O)nn3)O2)c(=O)n(Cc2cn(CC(=O)O)nn2)c1=O		Active		Ki [4]: 2.3 µM
O=c1ccn([C@@H]2O[C@H](CO)[C@@H](S(=O)(=O)O)[C@@H]2O)c(=O)[nH]1	0.96 µM			
O=C(O)c1nnn(C[C@H]2O[C@@H](OCc3cn(CCS(=O)(=O)O)nn3)[C@H](O)[C@@H]2O)c1C(=O)O	46 µM			
O=S(=O)(O)CCn1cc(CO[C@@H]2O[C@H](Cn3cc(CS(=O)(=O)O)nn3)[C@@H](O)[C@H]2O)nn1	29 µM			
O=C(O)Cn1cc(COC[C@H]2O[C@@H](n3ccc(=O)n(Cc4cn(CC(=O)O)nn4)c3=O)[C@H](OCc3cn(CC(=O)O)nn3)[C@@H]2OCc2cn(CC(=O)O)nn2)nn1		Active	74.1 µM	
Cc1cn([C@H]2C[C@H](OCc3cn(CC(=O)O)nn3)[C@@H](CO)O2)c(=O)n(Cc2cn(CC(=O)O)nn2)c1=O		Active	352 µM	
Cc1cn([C@H]2C[C@H](S(=O)(=O)O)[C@@H](CO)O2)c(=O)[nH]c1=O	2.08 µM			
O=C(O)CS(=O)(=O)[C@H]1[C@@H](O)[C@H](n2ccc(=O)[nH]c2=O)O[C@@H]1CO	2 µM			
Cc1cn([C@H]2C[C@H](O)[C@@H](CO)O2)c(=O)n(Cc2cn(CC(=O)O)nn2)c1=O		Active		Km [6]: 585 µM; Ki [7]: 232 µM
O=C(O)Cn1cc(COC[C@H]2O[C@@H](n3ccc(=O)n(Cc4cn(CC(=O)O)nn4)c3=O)[C@H](O)[C@@H]2O)nn1		Active	198 µM	
O=C(O)Cn1cc(Cn2c(=O)ccn([C@@H]3O[C@H](CO)[C@@H](O)[C@H]3O)c2=O)nn1		Active	55.4 µM	
